Data taken from patent US10780127B2, “Method for producing fermented milk having high angiotensin converting enzyme inhibitory activity and method for producing physiologically active peptide” (NATIONAL UNIVERSITY CORPORATION TOTTORI UNIVERSITY, priority 2016, dated 2020).
Where two headings read alike, the source gives them in different places. Peptide text beside a SMILES is read from it.

Columns and labels:
ACE [1] = biological target: T1, ACE (Homo sapiens, UniProt P12821); assay: Reported IC50 value of YP for ACE; assay type: biochemical; details: corresponds to 720 μM; read-out: IC50 value of YP for ACE, corresponding mass concentration (converted)
ACE [2] = biological target: T1, ACE; details: reported value; read-out: IC50 value of YP for ACE; cited from earlier work

T1 sequence (P12821 30-1306, species assumed): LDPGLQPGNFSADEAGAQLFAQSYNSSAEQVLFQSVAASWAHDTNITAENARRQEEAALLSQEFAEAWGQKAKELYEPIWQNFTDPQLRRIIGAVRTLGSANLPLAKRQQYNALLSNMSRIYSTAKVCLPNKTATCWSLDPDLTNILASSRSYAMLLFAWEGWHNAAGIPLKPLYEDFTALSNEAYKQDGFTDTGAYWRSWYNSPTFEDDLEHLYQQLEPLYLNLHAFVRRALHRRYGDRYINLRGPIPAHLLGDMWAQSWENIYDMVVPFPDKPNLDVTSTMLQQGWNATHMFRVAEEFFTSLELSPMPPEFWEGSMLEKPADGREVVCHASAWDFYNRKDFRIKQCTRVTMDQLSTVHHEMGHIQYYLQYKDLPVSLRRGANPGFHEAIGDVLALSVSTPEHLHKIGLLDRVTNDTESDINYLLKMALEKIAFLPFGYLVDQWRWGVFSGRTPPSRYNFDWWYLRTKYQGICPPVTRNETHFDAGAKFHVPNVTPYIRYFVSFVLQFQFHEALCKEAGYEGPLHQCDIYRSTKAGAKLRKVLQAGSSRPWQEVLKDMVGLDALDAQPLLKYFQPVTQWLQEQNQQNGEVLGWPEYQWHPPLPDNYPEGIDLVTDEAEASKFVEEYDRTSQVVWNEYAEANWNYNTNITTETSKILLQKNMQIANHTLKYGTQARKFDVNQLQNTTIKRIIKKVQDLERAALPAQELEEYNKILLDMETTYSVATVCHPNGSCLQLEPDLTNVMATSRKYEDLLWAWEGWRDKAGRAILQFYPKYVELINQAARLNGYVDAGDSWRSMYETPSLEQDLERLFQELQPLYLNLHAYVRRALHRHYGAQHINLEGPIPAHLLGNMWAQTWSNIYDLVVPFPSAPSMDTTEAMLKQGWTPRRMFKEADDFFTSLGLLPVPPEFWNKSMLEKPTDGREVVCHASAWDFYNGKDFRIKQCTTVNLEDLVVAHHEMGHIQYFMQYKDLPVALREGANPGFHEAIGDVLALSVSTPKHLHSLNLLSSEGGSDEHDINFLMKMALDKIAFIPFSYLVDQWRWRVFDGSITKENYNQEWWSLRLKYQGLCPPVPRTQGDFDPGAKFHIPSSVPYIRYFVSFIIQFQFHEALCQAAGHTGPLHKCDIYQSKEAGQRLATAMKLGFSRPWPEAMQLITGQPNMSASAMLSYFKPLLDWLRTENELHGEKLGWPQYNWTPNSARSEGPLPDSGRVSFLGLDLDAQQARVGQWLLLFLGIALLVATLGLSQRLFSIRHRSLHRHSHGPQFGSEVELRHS

N[C@@H](Cc1ccc(O)cc1)C(=O)N1CCC[C@H]1C(=O)O [YP, Tyr-Pro] (H-Tyr-Pro-OH)
IC50 (ACE [1]): 719 µM
IC50 (ACE [2]): 720 µM
